Read-outs that look alike come from different tables or passages of the source. No end group written: not given here. Cy5 = Cy5 cyanine dye label
Assays:
[1] = cited from earlier work
[2] = Werle and Bernkop-Schnürch 2006; cited from earlier work
lipoproteins = settings: binding to lipoproteins; cited from earlier work
PANX1 [3] = assay: Retrogenix cell microarray, confirmation on fixed and live cells; assay type: binding, human; settings: for binding / specific interaction with PANX1: fixed HEK293 cells, 0.01 and 0.05 μg/ml, two separate expression clones
PANX1, sequence (Q96RD7 1-400 limits assumed): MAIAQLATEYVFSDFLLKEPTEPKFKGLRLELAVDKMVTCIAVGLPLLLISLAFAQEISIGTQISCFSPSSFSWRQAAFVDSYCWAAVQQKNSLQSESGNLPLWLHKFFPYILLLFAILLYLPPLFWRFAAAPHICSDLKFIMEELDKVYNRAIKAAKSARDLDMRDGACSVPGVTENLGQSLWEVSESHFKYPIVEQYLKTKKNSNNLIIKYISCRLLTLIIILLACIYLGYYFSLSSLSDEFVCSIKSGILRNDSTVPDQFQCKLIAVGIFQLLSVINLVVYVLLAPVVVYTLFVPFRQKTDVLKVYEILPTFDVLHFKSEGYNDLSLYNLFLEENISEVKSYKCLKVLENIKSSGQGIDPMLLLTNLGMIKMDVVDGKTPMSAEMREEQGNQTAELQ
Method: (§1) CY5-labelled peptide (SEQUENCE ID NO. 1; (0.01 & 0.05 μg/ml) was screened for binding against fixed HEK293 Cells expressing 5528 human plasma membrane proteins. Screening was carried across two replicates and initial hits were selected and screened in more specific confirmation assay.
(§2) To confirm extracellular membrane binding of the peptide in culture, receptor screening was carried out (Retrogenix). Retrogenix's cell microarray technology was used to screen for specific cell surface target interactions of a CY5 labelled peptide (pep_HTWCFL the CY5 labelled version of SEQUENCE ID NO. 1).
(§3) Under this condition, the test peptide was screened for binding against fixed human HEK293 cells, individually expressing 5528 full-length human plasma membrane proteins and secreted proteins.
(§4) Each primary hit was then re-expressed, along with two control receptors (CD20 (MS4A1) and EGFR), and re-tested with 0.01 μg/ml and 0.05 μg/ml test peptide, equal concentrations of a control peptide, and other positive and negative control treatments. […] Among these were PANX1 (from two separate expression clones), SLC35F2 and TACR1.

[4] = test system: human skeletal muscle cells (HSKMC Cells); assay: Cell penetration imaging in human skeletal muscle cells; assay type: cell-based; settings: 60 mins incubation, CY5 tagged peptide
Method: An array of imaging studies was conducted to determine the kinetics and nature of the peptide (SEQUENCE ID NO. 1) interaction with target cell types. These experiments were required to determine if the peptide target was an intra or extra cellular protein. […] Control staining with the unlabelled CY5 dye should no uptake in this cell type.

[5] = target: T1, TACR1 (Substance P receptor) (Homo sapiens, UniProt P25103); assay: Retrogenix cell microarray, confirmation on fixed and live cells; assay type: binding; settings: for binding / specific interaction with TACR1: fixed HEK293 cells, 0.01 and 0.05 μg/ml
T1 construct: individually expressing 5528 full-length human plasma membrane proteins and secreted proteins; host or cells: HEK293 (fixed and live)
T1 sequence (P25103 whole entry): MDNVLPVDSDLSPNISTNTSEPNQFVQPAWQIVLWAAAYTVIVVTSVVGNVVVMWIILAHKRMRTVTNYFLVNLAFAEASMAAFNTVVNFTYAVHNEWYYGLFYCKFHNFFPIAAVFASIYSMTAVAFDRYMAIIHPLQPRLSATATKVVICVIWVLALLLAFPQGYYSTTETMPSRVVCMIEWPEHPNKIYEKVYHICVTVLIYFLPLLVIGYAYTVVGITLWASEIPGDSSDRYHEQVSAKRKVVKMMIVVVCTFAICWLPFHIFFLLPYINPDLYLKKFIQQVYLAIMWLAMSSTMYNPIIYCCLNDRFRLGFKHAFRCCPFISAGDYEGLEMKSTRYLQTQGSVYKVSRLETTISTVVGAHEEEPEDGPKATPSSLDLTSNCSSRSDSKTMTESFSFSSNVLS
Method: as §1, §2, §3, §4

SLC35F2 [6] = target: T2, SLC35F2 (Homo sapiens, UniProt Q8IXU6); assay: as above; assay type: binding; settings: for binding / specific interaction with SLC35F2: fixed HEK293 cells, 0.01 and 0.05 μg/ml
T2 construct: individually expressing 5528 full-length human plasma membrane proteins and secreted proteins; host or cells: HEK293 (fixed and live)
T2 sequence (Q8IXU6 1-374): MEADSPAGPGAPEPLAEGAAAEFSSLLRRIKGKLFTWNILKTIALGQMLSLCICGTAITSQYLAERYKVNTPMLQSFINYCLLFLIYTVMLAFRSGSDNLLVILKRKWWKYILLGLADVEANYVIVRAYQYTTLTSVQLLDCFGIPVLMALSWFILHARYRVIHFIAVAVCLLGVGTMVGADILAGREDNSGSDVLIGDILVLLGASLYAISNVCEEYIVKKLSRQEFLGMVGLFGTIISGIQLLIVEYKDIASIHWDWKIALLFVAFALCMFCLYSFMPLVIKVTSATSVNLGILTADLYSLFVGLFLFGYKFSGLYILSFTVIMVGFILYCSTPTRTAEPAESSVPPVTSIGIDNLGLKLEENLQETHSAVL
Method: as §1, §2, §3, §4

IL-8 = IL-8 secretion in LPS-treated HepG2 cells; assay type: cell-based; settings: peptide 5 ng/ml for 24 h, then 100 ng/mL LPS for 24 h
Method: FIG. 4 illustrates peptide of SEQUENCE ID NO. […] HepG2 cells were treated with peptide (5 ng/ml) for 24 h before treating with 100 ng/mL of LPS for 24 h. Data presented are the mean±SEM of at least 2 independent experiments. (*p<0.05 **p<0.01 ***p<0.001)
HepG2 cells were treated with peptide (5 ng/ml) for 24 h before treating with 100 ng/mL of LPS for 24 h. Data presented are the mean±SEM of at least two independent experiments. (*p<0.05 **p<0.01 ***p<0.001)

Panx1 [7] = target: T3, Panx1 (Homo sapiens, UniProt Q96RD7); assay: Ca2+ flux assay and flow cytometry in THP-1 cells; assay type: cell-based; design: endogenous in cells; host or cells: THP-1; settings: 45 s preincubation with 1 μM peptide, ATP stimulation
T3 sequence (Q96RD7 whole entry): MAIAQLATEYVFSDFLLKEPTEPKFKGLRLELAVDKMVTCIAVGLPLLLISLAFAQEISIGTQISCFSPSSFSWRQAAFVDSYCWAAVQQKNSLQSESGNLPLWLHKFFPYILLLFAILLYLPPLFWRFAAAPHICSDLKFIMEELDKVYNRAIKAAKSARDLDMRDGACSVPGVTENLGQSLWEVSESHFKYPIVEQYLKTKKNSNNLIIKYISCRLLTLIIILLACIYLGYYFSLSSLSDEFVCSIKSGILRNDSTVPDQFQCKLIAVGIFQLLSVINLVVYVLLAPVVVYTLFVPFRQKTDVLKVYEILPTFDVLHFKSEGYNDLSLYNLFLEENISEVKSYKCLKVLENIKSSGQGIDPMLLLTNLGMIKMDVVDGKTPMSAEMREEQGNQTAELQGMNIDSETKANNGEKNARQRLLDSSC
Description: FIG. 9A, B and C illustrate downregulation of ATP mediated Ca2+ ions flux by the peptide (SEQUENCE ID NO. 1). ATP treatment of THP-1 cells causes an increase in detection of FITC labelled Ca^2+ ions (A). […] Comparison of FITC fluorescent units detected via flow cytometry, independent of the peptide and in the presence of the peptide (C).
Panx-1 binding with the peptide (SEQUENCE ID NO. 1) was investigated using a Ca^2+ flux assay and flow cytometry. Panx-1 plays an important role in regulating the Ca^2+ ion and ATP balance at the cell membrane. This relationship can be leveraged to monitor the activity of Panx1. Blocking Panx1 should lead to a significant decrease in Ca^2+ flux in the cell, in response to ATP stimulation.
THP-1 cells were incubated with a FITC fluorescent dye for a period of 30 min in order to label intracellular Ca^2+ ions. Cells were then stimulated with ATP to drive calcium flux from the cell, this increase in fluorescence is then detected by flow cytometry. Prior to ATP stimulation, the cells are incubated with 1 μM doses of the peptide in order to investigate if a drop in calcium flux is observed, this drop caused by binding of the peptide to Panx1, thus inhibiting ATP mediated calcium flux.

Panx1 [8] = target: T3, Panx1; assay: Intracellular peptide concentration after PANX1 activation (Caco2); assay type: cell-based; design: endogenous in cells; host or cells: Caco2; settings: Caco2 cells, before and after channel activation by increased extracellular calcium
Method: The peptide of the invention (SEQUENCE ID NO. 1) was added to cells (Caco2). The PANX1 channel was activated in cells by increasing extracellular calcium levels. The intracellular concentration of the peptide was measured before and after activation.

α-SMA = assay: Anti-fibrotic activity in human primary hepatic stellate cells (α-SMA); assay type: cell-based
Method: FIG. 5A and B illustrate peptide of SEQUENCE ID NO. […] (A) Confocal imaging of human stellate cells treated with TGF-β1 to stimulate expression of α-SMA before treatment with peptide (5 nM). (B) Quantification of α-SMA expression.
Human stellate cells were treated with TGF-β1 to stimulate expression of α-SMA (smooth muscle action; primary marker for fibrosis) before treatment with the peptide (5 nM; SEQUENCE ID NO. 1). Confocal imaging of the cells was undertaken.

[9] = test system: 5528 full-length human plasma membrane proteins and secreted proteins; assay: Retrogenix cell microarray screen on fixed HEK293 cells; assay type: binding
Method: as §1, §2, §3, §4

SLC35F2 [10] = target: T4, SLC35F2 (human, UniProt Q8IXU6 1-374); assay: cell microarray, CY5-labelled peptide on fixed HEK293 cells expressing human plasma membrane proteins
T4 construct: whole, on cells
T4 sequence (looked up): T2 sequence (Q8IXU6 1-374)

[11] = target: T5, TACR1 (Substance P receptor) (human, UniProt P25103 1-407); assay: as above
T5 construct: whole, on cells
T5 sequence (P25103 whole entry): as the sequence (P25103 whole entry) above

C[C@@H](O)[C@@H]1NC(=O)[C@H](CCCCN)NC(=O)[C@@H](Cc2c[nH]c3ccccc23)NC(=O)[C@H](Cc2ccccc2)NC(=O)[C@@H](NC(=O)[C@H](N)Cc2ccccc2)CSSC[C@@H](C(=O)N[C@H](CO)[C@@H](C)O)NC1=O [octreotide]
half-life ([1]; in humans): about 100 min | plasma half life time [2]: 1.5 h | fraction unbound (lipoproteins): 0.65

NC(=O)CC[C@@H]1NC(=O)[C@H](Cc2ccccc2)NC(=O)[C@H](Cc2ccc(O)cc2)NC(=O)CCSSC[C@@H](C(=O)N2CCC[C@H]2C(=O)N[C@H](CCCN=C(N)N)C(=O)NCC(N)=O)NC(=O)[C@H](CC(N)=O)NC1=O [desmopressin]
half-life ([1]; human, in vivo): 3.7 h

WKDEAGKPLVK [SEQUENCE ID NO. 1]
binding / specific interaction with PANX1 (PANX1 [3]): Highly Selective Targets | intracellular accumulation [4]: significant intracellular accumulation | binding / specific interaction with TACR1 [5]: Highly Selective Targets | binding / specific interaction with SLC35F2 (SLC35F2 [6]): Highly Selective Targets | secretion of IL-8 (IL-8): reduces the secretion of IL-8 | ATP mediated Ca2+ ion flux (Panx1 [7]): blocks ATP mediated Ca^2+ ion flux | intracellular concentration of the peptide (Panx1 [8]): increased when the channel is activated | anti-fibrotic activity compared with Elafibranor (α-SMA; equivalent molar doses): outperformed Elafibranor | α-SMA expression (α-SMA; human stellate cells treated with TGF-β1, peptide 5 nM, confocal imaging): decrease in α-SMA expression

NC(=O)CC[C@@H]1NC(=O)[C@H](Cc2ccccc2)NC(=O)[C@H](Cc2ccc(O)cc2)NC(=O)[C@@H](N)CSSC[C@@H](C(=O)N2CCC[C@H]2C(=O)N[C@@H](CCCN=C(N)N)C(=O)NCC(N)=O)NC(=O)[C@H](CC(N)=O)NC1=O [vasopressin]
half-life ([1]; in humans): 0.167 to 0.583 h

pep_HTWCFL: the CY5 labelled version of SEQUENCE ID NO. 1 (WKDEAGKPLVK; also: Cy5 label, position not given here)
binding / specific interaction with PANX1 (PANX1 [3]): specific interactions | signal to background (PANX1 [3]; fixed cells): greatest signal to background | binding signal on live cells (PANX1 [3]; live cell microarray): lack of signals seen on live cells | binding / specific interaction with TACR1 [5]: specific interactions | specific interaction with TACR1 ([5]; live cell microarray): specific interactions | binding / specific interaction with SLC35F2 (SLC35F2 [6]): specific interactions | specific interaction with SLC35F2 (SLC35F2 [6]; live cell microarray): specific interactions | primary hits in initial screening ([9]; 0.01 μg/ml test peptide on fixed cells for 30 minutes): 43 | specific interactions for the test peptide after re-expression of primary hits ([9]; re-tested with 0.01 μg/ml and 0.05 μg/ml test peptide, fixed cells): Nine

CCNC(=O)[C@@H]1CCCN1C(=O)[C@H](CCCNC(=N)N)NC(=O)[C@H](CC(C)C)NC(=O)[C@@H](COC(C)(C)C)NC(=O)[C@H](Cc1ccc(O)cc1)NC(=O)[C@H](CO)NC(=O)[C@H](Cc1c[nH]c2ccccc12)NC(=O)[C@H](Cc1cnc[nH]1)NC(=O)[C@@H]1CCC(=O)N1 [buserelin]
half-life ([1]; in humans, in words): much longer half-life

B1: CY5-labelled peptide (pep_HTWCFL, the CY5 labelled version of SEQUENCE ID NO. 1) (peptide)
peptide: WKDEAGKPLVK-Cy5
notes: also called test peptide; C-terminal CY5 Tagged peptide
binding result (SLC35F2 [10]): binds | binding result [11]: binds
